Reference: ChEMBL document CHEMBL1201862, “PubChem BioAssay data set” (2004)
Activity calls are given as the source filed them.

What was measured:
[1] = biological target: T1, Runt-related transcription factor 1/Core-binding factor subunit beta (Homo sapiens, UniProt Q01196+Q13951); assay: Runt domain/CBFb-SMMHC interaction disruptors – biochemical, TR-FRET (AID 1438); assay type: protein assay
[2] = biological target: T1, Runt-related transcription factor 1/Core-binding factor subunit beta; assay: disruptors of Runt domain/CBFb-SMMHC interaction – biochemical, FRET, Cerulean-Runt, Venus-CBFb-SMMHC, uHTS, […] (AID 1434); assay type: protein assay
[3] = biological target: T2, Intestinal-type alkaline phosphatase (Homo sapiens, UniProt P09923); assay: activation of human intestinal alkaline phosphatase – biochemical, luminescent, uHTS hits, set 2, dose response (AID 488817); assay type: functional;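 note: potency of activators that raise enzyme activity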
T2 sequence (P09923 whole entry): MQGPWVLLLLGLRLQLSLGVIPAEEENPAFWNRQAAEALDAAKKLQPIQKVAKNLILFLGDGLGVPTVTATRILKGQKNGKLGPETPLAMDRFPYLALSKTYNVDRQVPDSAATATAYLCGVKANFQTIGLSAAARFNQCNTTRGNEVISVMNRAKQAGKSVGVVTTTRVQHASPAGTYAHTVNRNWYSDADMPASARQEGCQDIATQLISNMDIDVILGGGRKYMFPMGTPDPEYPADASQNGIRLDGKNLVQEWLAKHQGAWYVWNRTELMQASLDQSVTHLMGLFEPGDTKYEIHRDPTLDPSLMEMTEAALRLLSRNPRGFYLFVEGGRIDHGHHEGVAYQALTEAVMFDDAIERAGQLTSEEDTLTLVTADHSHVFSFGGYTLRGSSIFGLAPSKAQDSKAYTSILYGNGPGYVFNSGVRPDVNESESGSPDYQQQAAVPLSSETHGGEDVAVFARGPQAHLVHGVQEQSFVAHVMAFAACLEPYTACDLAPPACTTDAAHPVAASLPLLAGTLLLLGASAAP

[4] = biological target: T2, Intestinal-type alkaline phosphatase; assay: human intestinal alkaline phosphatase activators, dose response, biochemical, luminescence, uHTS hits (AID 463120); assay type: functional
[5] = biological target: Intestinal-type alkaline phosphatase (Mus musculus, UniProt P24822); assay: PubChem AID 488874; assay type: functional
Chain of Intestinal-type alkaline phosphatase (Mus musculus, UniProt P24822) (P24822 whole entry): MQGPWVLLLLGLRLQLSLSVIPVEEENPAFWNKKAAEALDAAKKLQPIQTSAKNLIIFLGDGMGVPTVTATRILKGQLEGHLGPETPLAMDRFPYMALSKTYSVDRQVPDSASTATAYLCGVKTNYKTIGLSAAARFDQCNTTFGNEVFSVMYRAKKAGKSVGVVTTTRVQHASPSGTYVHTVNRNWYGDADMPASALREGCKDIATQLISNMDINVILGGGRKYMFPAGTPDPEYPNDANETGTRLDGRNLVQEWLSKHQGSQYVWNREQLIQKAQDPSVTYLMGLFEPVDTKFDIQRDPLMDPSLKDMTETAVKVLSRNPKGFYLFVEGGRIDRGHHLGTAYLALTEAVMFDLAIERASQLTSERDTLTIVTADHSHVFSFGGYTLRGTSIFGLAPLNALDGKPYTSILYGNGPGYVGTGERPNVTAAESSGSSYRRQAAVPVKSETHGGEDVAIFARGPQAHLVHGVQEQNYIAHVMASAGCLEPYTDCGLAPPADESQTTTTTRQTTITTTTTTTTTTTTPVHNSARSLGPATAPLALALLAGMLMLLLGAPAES

[6] = biological target: T3, Alkaline phosphatase, tissue-nonspecific isozyme (Homo sapiens, UniProt P05186); assay: activation of tissue-nonspecific alkaline phosphatase – biochemical, TNAP isozyme, human IAP uHTS hits, selectivity assay for human IAP activator project, dose response (AID 488886); assay type: functional;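 note: potency of compounds raising TNAP activity as a selectivity check on IAP activators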
T3 sequence (P05186 whole entry): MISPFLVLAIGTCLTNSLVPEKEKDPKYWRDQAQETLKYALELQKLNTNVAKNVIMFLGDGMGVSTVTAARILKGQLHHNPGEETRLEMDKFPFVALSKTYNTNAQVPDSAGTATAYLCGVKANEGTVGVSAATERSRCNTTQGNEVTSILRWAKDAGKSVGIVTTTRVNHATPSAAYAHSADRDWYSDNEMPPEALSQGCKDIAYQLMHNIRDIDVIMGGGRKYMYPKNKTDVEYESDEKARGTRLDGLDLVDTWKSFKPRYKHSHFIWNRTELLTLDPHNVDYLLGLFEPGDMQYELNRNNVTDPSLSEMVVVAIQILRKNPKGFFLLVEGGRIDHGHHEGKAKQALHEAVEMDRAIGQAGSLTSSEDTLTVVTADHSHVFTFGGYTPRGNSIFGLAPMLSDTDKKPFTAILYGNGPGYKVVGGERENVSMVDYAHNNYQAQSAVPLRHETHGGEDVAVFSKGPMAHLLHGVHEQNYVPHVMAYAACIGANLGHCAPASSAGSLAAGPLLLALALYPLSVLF

[7] = biological target: T4, High affinity choline transporter 1 (Homo sapiens, UniProt Q9GZV3); assay: human choline transporter blockers, potency – cell-based, 5-point CRC, membrane potential dye, dose response (AID 504840); assay type: functional
T4 sequence (Q9GZV3 whole entry): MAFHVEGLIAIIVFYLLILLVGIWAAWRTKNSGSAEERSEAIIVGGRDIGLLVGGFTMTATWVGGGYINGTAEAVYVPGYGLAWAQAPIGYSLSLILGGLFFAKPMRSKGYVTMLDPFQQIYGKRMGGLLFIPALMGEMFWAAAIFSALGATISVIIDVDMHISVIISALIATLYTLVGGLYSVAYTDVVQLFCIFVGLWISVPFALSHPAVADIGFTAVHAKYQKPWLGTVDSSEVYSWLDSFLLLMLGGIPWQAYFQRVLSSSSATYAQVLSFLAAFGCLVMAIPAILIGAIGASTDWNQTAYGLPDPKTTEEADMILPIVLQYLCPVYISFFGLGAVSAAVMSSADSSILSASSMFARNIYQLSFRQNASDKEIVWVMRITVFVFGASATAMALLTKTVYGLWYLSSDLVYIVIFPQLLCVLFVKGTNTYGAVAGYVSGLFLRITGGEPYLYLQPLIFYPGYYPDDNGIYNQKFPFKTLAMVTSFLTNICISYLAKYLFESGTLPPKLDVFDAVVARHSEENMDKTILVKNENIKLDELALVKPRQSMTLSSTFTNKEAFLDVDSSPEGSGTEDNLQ

HEK293 = assay: cells; conditions: Homo sapiens;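 note: cells exposed to compound for 14 hours overnight before viability readout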
[8] = HIV-1 AD8 envelope cell-cell fusion blockers – cherry-pick, dose response (AID 652062); assay type: functional, cell-based;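 note: luciferase signal from cell-cell fusion driven by HIV-1 clade B AD8 Env; potency is for inhibitors of fusion seen as a drop in luminescence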
[9] = biological target: T5, COUP transcription factor 2 (Homo sapiens, UniProt P24468); assay: Luminescence-based cell-based high throughput dose response assay to identify inhibitors of COUP-TFII (NR2F2).; assay type: functional;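 note: HEK293 cells transiently cotransfected with COUP-TFII expression vector and reporter; luciferase reporter luminescence driven by COUP-TFII from the pX2-168 reporter plasmid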
T5 sequence (P24468 whole entry): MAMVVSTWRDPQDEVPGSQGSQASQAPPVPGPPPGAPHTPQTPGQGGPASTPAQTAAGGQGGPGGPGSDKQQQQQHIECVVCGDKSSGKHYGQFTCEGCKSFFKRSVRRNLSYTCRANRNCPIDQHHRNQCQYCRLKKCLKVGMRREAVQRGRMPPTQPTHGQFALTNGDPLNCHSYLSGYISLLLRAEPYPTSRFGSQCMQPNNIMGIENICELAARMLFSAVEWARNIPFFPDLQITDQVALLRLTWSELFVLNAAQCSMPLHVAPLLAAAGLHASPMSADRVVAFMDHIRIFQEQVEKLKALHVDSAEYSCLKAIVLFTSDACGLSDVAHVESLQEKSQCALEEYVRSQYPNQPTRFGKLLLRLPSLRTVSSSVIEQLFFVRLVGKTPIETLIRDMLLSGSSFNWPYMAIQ

[10] = biological target: T6, Nucleotide-binding oligomerization domain-containing protein 1 (Homo sapiens, UniProt Q9Y239); assay: blockers of NOD1 pathway activity – revised, SAR follow-up (AID 2333); assay type: functional
T6 sequence (Q9Y239 whole entry): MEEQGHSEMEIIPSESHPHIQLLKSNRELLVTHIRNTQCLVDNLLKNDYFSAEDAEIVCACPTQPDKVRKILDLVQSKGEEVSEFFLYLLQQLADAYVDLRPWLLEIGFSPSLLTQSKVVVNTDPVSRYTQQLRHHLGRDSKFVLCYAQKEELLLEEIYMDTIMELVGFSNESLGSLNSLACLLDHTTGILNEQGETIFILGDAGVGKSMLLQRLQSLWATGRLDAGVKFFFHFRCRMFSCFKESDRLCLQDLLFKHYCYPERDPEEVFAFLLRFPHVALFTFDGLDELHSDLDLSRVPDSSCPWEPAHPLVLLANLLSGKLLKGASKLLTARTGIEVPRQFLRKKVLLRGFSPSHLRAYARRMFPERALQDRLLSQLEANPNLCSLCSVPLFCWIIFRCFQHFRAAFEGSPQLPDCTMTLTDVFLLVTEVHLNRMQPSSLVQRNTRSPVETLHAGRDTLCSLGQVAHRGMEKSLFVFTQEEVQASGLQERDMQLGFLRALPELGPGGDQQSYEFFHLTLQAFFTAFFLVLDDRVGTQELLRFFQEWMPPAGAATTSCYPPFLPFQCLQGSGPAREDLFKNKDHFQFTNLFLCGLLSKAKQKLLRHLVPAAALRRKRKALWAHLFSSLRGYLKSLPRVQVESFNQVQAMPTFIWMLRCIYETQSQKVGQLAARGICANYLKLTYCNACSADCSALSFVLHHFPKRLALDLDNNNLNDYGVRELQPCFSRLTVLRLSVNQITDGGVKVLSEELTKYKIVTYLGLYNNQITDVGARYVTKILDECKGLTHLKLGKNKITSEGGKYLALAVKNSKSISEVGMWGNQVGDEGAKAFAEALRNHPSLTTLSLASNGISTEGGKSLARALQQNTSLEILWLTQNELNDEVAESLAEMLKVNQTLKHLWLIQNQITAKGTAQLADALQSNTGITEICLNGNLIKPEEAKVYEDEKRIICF

[11] = blockers of HIV-1 ZM109 envelope-driven cell-cell fusion – HeLa effector, CEM target cells, luciferase, cherry-pick, dose response (AID 652058); assay type: functional, cell-based;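 note: luciferase signal from HIV-1 Env mediated cell-cell fusion of effector and target cells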
Tumor necrosis factor = Tumor necrosis factor (Homo sapiens, UniProt P01375); assay: analog potency on TNFa NF-kB signaling – cell-based, revised, SAR follow-up (AID 2337); assay type: functional
Chain of Tumor necrosis factor (P01375 whole entry): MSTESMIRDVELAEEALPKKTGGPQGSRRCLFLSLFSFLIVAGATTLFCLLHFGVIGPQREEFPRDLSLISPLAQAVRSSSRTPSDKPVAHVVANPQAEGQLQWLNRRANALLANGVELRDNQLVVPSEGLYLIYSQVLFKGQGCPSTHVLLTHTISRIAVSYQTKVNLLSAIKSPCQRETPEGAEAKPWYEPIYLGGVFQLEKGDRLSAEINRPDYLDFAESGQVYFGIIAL

[12] = biological target: Glyceraldehyde-3-phosphate dehydrogenase (Homo sapiens, UniProt P04406)
Chain of Glyceraldehyde-3-phosphate dehydrogenase (P04406 whole entry): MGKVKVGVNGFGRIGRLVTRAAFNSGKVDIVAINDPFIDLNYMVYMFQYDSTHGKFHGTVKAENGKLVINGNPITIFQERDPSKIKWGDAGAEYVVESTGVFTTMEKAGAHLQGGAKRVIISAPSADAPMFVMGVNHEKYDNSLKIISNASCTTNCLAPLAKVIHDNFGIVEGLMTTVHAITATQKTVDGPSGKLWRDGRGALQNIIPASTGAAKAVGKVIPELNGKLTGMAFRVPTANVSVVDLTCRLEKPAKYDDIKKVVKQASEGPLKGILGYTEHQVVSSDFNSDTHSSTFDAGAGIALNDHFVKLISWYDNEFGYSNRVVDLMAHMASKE

[13] = biological target: T3, Alkaline phosphatase, tissue-nonspecific isozyme; assay: potency against alkaline phosphatase TNAP – biochemical, luminescent, dose response, SAR follow-up (AID 1056)
Protein RecA = biological target: T7, Protein RecA (Mycobacterium tuberculosis, UniProt P9WHJ3); assay: Fluorescence Cell-Free Homogeneous Dose Retest to Identify Inhibitors of RecA-Intein Splicing Activity. [Related pubchem assays (depositor defined):AID2097, AID2223, AID489010, AID492950]; assay type: functional
T7 sequence (P9WHJ3 whole entry): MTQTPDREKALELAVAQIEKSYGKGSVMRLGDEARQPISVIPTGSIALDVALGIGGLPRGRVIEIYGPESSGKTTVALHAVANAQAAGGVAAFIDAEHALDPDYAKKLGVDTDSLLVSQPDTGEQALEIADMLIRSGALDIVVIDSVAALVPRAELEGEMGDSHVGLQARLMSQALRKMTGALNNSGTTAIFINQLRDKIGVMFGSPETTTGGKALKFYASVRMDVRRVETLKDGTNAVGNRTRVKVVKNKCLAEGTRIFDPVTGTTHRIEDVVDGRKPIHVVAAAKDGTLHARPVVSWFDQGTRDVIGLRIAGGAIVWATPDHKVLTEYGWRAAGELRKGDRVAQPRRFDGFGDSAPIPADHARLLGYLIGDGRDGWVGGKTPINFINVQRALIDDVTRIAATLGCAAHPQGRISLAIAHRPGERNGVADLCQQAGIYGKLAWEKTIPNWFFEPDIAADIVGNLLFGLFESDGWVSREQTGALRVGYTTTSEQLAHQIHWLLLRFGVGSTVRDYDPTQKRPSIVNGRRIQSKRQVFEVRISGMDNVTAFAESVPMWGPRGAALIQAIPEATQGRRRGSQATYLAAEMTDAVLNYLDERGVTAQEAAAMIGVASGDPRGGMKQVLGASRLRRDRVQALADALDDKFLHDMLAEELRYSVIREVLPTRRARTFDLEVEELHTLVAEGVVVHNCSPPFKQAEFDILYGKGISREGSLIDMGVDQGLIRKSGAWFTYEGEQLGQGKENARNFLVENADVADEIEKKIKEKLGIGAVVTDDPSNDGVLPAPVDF

[14] = biological target: T8, Replicative DNA helicase DnaB (Mycobacterium tuberculosis, UniProt P9WMR3); assay: DnaB intein splicing inhibitors, dose response, biochemical, cell-free fluorescence (AID 449749); assay type: functional
T8 sequence (P9WMR3 whole entry): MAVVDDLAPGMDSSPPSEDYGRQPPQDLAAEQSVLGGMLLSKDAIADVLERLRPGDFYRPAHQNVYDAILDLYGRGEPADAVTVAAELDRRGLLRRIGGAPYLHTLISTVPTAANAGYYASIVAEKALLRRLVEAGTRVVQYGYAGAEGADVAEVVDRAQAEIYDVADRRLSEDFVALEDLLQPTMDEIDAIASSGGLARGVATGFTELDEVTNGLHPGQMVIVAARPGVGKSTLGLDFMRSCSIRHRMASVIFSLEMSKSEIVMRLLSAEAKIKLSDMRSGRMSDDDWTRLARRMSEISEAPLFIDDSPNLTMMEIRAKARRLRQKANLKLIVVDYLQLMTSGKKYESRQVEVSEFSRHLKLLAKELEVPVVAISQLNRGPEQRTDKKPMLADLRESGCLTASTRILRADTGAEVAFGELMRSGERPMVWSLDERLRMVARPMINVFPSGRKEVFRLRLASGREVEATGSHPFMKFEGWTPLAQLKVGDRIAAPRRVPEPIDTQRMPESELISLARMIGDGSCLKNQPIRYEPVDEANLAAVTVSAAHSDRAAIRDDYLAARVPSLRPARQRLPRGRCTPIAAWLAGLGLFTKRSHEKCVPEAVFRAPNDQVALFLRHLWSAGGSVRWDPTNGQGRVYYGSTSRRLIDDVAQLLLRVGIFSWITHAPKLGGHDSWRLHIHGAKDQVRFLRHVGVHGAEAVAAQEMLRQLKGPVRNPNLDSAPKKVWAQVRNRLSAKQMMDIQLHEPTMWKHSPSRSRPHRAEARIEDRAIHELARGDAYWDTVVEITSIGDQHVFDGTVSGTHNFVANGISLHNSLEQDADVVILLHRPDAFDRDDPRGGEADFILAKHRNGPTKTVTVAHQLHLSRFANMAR

[15] = biological target: Alkaline phosphatase, placental type (Homo sapiens, UniProt P05187); assay: human placental alkaline phosphatase inhibition – biochemical, luminescence, confirmation (AID 1512); assay type: functional
Chain of Alkaline phosphatase, placental type (P05187 whole entry): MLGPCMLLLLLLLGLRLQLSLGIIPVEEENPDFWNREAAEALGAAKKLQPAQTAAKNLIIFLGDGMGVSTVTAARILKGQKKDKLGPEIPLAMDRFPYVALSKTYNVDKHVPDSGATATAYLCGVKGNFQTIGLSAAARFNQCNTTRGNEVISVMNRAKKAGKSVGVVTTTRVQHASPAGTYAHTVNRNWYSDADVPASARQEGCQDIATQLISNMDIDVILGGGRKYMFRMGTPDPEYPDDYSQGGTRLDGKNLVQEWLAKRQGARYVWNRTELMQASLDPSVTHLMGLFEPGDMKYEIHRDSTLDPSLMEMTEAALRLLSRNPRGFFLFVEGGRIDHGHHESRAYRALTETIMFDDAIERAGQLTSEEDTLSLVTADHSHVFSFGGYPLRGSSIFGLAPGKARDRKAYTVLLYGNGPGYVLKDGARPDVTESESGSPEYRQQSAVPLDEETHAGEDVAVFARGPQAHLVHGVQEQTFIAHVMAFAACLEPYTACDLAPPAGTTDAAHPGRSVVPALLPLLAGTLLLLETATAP

T1 sequence (Q01196 whole entry, the tested form may be a part): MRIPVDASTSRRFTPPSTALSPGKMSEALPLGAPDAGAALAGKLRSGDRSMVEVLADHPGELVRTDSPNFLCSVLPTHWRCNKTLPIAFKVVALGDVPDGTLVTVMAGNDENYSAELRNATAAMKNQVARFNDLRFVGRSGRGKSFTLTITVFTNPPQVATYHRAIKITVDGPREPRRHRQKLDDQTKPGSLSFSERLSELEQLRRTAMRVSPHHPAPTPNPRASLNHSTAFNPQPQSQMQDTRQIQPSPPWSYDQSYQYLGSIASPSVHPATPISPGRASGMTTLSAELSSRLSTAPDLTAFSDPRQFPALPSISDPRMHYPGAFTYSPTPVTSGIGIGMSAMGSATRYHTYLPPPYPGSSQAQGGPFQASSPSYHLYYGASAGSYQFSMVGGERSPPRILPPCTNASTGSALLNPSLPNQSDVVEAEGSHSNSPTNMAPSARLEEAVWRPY
T1 sequence (Q13951 whole entry, the tested form may be a part): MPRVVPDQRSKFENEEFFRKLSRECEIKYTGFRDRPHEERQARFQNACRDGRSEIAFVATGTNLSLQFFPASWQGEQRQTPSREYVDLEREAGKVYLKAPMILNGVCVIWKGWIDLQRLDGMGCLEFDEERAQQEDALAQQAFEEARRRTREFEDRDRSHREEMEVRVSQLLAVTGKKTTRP

SMILES: CCCc1cc2c(OC(=O)CC)c(-c3ccc(C(=O)OCC)o3)c(=O)oc2cc1OC
- IC50 [1]: 7.94 µM (active)
- IC50 [2]: 5.51 µM (active)

SMILES: CCOc1ccc(CC(=O)NNC(=S)NC2CCCCC2)cc1OCC
- EC50 [3]: 17.8 µM (active)
- EC50 [4]: 18.7 µM (active)
- IC50 [5]: 40.9 µM (active)
- EC50 [6]: 17.2 µM (active)

SMILES: O=C(c1cccc(OC2CCN(Cc3ccc(F)cc3Cl)CC2)c1)N1CCCC1
- IC50 [7]: 18.2 µM (active)

SMILES: Cc1cc(C(=O)NC2CCCc3c2cnn3-c2ccc(C(C)(C)C)cc2)nn1C (stereo unspecified)
- IC50 (HEK293): 12.2 µM (active)
- AC50 [8]: 4.61 µM (active)
- IC50 [9]: 5.2 µM (active)
- IC50 [10]: 1.33 µM (active)
- AC50 [11]: 1.86 µM (active)
- IC50 (Tumor necrosis factor): 1.44 µM (active)

SMILES: CC1CCN(CCNC(=O)C2CCCN(S(=O)(=O)c3cccc4nsnc34)C2)CC1 (stereo unspecified)
- IC50 [7]: 15.8 µM (active)

SMILES: CN(C)C(=O)N1CCN(S(=O)(=O)c2ccc3ccccc3c2)CC1
- IC50 [7]: 12.9 µM (active)

SMILES: CCCc1c(O)oc2nnc(C)c-2c1C
- IC50 [12]: > 100 µM (not active)
- IC50 [13]: > 100 µM (inactive)
- EC50 (Protein RecA): 14.8 µM (active)
- AC50 [14]: 23.6 µM (active)
- IC50 [15]: > 100 µM (inactive)

SMILES: CC(C)c1nc(N)nn1-c1ccccc1
- IC50 [12]: > 100 µM (not active)
- IC50 [13]: > 100 µM (inactive)
- IC50 [15]: > 100 µM (inactive)

SMILES: CSCCC(NS(=O)(=O)c1ccc(C)cc1)C(=O)NNC(=O)c1csc(N2CCOCC2)n1 (stereo unspecified)
- EC50 [3]: 14.1 µM (active)
- EC50 [4]: 9.84 µM (active)
- IC50 [5]: 66.6 µM (active)
- EC50 [6]: 19.1 µM (active)

SMILES: Cc1cc(=O)[nH]c(-n2[nH]c3c(c2=O)CCCC3)n1
- EC50 [3]: 19.8 µM (active)
- EC50 [4]: 9.58 µM (active)
- IC50 [5]: > 100 µM (inactive)
- EC50 [6]: 12.2 µM (active)
